Laboratory results published in PMC6934184, “Selective DNA-PKcs inhibition extends the therapeutic index of localized radiotherapy and chemotherapy” (The Journal of Clinical Investigation, 2019).

Target: T1, SYK (Homo sapiens, UniProt P43405)
T1 construct: purchased Thermo Fisher Scientific (Life Technologies) SelectScreen
Test: SelectScreen Z'LYTE
Format: biochemical
In short: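 Percent values come from Thermo SelectScreen profiling of NU5455, combining activity and binding assays. CSF1R was run in Z'LYTE format at Km app ATP, and CAMK1 in Adapta format with ATP listed at 10.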

## CN(C(=O)CN1CCOCC1)c1ccc2sc3c(-c4cccc5c(=O)cc(N6CC7CCC(C6)O7)oc45)cccc3c2c1 [NU5455]
  inhibition at 1 µM: -0.2%
